Experimental data taken from US7326721B2 (Hypnion, Inc., priority 2003, dated 2008).
“And” between values parts separate entries of the source, which are not always exact repeats. Equal values may be shown once.

Experiments:
Histamine, H2 = Histamine, H2 (Homo sapiens, UniProt P25021); assay: Table 12 panel: Histamine, H2; conditions: 1.0E−6, average N=2, read-out: percentage inhibition of specific binding
Excerpt: (§1) The percentage inhibition (average; N=2) for these receptors is shown below in Table 12.
(§2) Values in Table 12 are expressed as percentage inhibition of specific binding, and these values represent the average of replicate tubes at each of the concentrations tested.

Oxytocin = Oxytocin (Homo sapiens, UniProt P30559); assay: Table 12 panel: Oxytocin; conditions: 1.0E−6, average N=2, read-out: percentage inhibition of specific binding
Chain of Oxytocin (P30559 whole entry): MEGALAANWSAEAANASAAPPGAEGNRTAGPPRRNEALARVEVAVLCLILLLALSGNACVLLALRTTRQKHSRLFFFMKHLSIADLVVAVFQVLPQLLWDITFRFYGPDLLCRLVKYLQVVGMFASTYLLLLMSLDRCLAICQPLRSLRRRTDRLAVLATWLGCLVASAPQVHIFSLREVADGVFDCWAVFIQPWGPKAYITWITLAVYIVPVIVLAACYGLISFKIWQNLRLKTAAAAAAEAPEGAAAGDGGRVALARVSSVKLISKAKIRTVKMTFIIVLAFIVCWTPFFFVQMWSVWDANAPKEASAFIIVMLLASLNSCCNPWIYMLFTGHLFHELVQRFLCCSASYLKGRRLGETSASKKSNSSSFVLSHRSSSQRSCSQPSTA
Excerpt: as §1, §2

[1] = target: Thyrotropin Releasing Hormone, TRH (Homo sapiens, UniProt P34981); assay: Table 12 panel: TRH; conditions: 1.0E−6, average N=2, read-out: percentage inhibition of specific binding
Excerpt: as §1, §2

Endothelin, ET-A (h) = Endothelin, ET-A (h) (Homo sapiens, UniProt P25101); assay: Table 12 panel: Endothelin, ET-A; conditions: 1.0E−6, average N=2, read-out: percentage inhibition of specific binding
Excerpt: as §1, §2

Endothelin, ET-B (h) = Endothelin, ET-B (h) (Homo sapiens, UniProt P24530); assay: Table 12 panel: Endothelin, ET-B; conditions: 1.0E−6, average N=2, read-out: percentage inhibition of specific binding
Chain of Endothelin, ET-B (h) (P24530 27-442): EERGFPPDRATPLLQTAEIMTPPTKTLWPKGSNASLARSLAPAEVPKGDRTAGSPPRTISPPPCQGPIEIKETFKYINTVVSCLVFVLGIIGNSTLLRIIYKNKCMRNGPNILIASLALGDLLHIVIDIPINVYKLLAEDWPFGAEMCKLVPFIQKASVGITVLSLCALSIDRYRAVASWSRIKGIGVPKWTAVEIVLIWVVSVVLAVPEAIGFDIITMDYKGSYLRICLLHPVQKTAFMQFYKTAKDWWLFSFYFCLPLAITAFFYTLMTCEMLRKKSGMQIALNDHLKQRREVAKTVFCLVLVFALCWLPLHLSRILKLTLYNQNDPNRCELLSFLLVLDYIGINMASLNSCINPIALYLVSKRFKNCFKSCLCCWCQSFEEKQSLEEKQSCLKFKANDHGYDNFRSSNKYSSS
Excerpt: as §1, §2

Galanin, Non-Selective = assay: Table 12 panel: Galanin; type: binding; conditions: 1.0E−6, average N=2
Excerpt: as §1, §2

[2] = target: Neurokinin, NK2 (NKA) (hr) (Homo sapiens, UniProt P21452); assay: Table 12 panel: NK2; conditions: 1.0E−6, average N=2, read-out: percentage inhibition of specific binding
Chain of Neurokinin, NK2 (NKA) (hr) (P21452 whole entry): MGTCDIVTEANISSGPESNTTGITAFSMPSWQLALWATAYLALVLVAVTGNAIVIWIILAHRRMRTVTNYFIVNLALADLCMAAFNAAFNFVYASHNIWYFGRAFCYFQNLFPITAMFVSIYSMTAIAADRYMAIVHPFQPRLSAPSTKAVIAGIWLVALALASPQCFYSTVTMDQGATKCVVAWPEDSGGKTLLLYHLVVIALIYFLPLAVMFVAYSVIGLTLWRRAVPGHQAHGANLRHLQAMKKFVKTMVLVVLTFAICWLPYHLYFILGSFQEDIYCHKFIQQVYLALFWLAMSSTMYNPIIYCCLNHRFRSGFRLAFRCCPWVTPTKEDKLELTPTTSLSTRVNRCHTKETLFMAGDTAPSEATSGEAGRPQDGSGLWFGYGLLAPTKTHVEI
Excerpt: as §1, §2

Neurokinin, NK3 (NKB) = Neurokinin, NK3 (NKB) (Homo sapiens, UniProt P29371); assay: Table 12 panel: NK3; conditions: 1.0E−6, average N=2, read-out: percentage inhibition of specific binding
Chain of Neurokinin, NK3 (NKB) (P29371 whole entry): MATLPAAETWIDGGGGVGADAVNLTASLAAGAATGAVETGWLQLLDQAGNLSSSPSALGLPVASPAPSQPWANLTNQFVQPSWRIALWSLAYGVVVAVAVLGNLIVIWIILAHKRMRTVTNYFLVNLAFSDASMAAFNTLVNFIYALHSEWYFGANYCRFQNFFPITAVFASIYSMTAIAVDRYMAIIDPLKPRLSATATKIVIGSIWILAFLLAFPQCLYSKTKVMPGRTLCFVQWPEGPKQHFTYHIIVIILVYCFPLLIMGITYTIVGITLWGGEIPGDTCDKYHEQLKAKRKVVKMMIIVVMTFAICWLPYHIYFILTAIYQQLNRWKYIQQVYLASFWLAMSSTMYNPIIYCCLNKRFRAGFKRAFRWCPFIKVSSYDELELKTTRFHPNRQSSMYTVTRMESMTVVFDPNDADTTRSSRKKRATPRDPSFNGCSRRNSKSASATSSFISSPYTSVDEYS
Excerpt: as §1, §2

Vasopressin 1 = Vasopressin 1 (Homo sapiens, UniProt P37288); assay: Table 12 panel: Vasopressin 1; conditions: 1.0E−6, average N=2, read-out: percentage inhibition of specific binding
Chain of Vasopressin 1 (P37288 whole entry): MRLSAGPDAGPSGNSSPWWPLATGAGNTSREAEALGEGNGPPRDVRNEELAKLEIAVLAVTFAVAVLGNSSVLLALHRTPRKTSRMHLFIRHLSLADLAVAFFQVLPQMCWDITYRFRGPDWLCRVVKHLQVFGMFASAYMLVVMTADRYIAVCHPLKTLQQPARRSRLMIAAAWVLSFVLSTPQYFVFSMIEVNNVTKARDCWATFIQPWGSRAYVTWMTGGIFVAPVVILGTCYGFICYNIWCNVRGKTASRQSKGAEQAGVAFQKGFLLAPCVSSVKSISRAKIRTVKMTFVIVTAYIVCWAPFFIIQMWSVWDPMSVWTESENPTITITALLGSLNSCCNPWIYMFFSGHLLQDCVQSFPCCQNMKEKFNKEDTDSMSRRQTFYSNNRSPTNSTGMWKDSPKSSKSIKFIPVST
Excerpt: as §1, §2

[3] = target: Choline Acetyltransferase (Homo sapiens, UniProt P28329); assay: Table 12 panel: Choline Acetyltransferase; type: biochemical; conditions: 1.0E−6, average N=2
Chain of Choline Acetyltransferase (P28329 whole entry): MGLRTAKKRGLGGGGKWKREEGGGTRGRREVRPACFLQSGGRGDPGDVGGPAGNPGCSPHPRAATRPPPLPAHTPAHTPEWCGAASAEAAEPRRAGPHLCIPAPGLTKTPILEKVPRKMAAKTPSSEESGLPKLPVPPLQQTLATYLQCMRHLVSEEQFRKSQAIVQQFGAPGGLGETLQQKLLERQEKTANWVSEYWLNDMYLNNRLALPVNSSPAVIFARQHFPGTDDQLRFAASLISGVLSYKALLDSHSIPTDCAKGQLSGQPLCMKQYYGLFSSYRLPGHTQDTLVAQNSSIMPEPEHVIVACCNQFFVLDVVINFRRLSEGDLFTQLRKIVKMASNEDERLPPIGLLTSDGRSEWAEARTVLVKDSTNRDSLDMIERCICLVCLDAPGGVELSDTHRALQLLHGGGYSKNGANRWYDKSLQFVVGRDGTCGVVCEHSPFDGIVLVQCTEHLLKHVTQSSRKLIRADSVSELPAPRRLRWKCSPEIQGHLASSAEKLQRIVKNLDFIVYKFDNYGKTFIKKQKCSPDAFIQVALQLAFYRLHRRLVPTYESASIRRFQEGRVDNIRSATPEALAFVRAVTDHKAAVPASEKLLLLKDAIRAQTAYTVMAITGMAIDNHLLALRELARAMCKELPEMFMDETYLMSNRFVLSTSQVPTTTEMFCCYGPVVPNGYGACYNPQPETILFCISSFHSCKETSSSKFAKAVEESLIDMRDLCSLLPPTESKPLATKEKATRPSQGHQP
Excerpt: as §1, §2

Esterase, Acetylcholine = Esterase, Acetylcholine (Homo sapiens, UniProt P22303); assay: Table 12 panel: Acetylcholine esterase; type: biochemical; conditions: 1.0E−6, average N=2
Chain of Esterase, Acetylcholine (P22303 32-614): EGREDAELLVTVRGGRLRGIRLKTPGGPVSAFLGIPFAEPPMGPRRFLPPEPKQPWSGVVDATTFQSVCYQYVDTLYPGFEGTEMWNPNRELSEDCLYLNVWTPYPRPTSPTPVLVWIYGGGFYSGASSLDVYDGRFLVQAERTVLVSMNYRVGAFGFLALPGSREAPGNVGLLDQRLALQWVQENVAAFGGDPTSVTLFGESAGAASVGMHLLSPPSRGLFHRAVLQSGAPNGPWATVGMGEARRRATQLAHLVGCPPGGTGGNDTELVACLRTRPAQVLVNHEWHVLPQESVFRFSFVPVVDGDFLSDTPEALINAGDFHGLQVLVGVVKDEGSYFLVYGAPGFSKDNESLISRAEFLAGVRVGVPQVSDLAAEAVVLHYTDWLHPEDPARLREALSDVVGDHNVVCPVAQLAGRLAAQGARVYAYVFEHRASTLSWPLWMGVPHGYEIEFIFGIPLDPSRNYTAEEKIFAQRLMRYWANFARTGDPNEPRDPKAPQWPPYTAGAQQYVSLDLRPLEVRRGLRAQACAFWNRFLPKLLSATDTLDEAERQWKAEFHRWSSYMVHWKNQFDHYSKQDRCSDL
Excerpt: as §1, §2

telemetered Beagle dogs = assay: ECG and arterial blood pressure in telemetered Beagle dogs; type: in vivo, dog
Protocol: To determine if HY2901 could produce any changes in QT interval, the compound was studied in telemetered Beagle dogs. Dogs were implanted with devices to continuously monitor ECG and arterial blood pressure. Dogs (groups of 4) were studied in a Latin square cross-over design, with each dog receiving 3 different doses and a placebo. Two studies were conducted with doses of 0.3, 1, 3, 10, and 30 mg/kg. […] The tachycardia persisted for 6–8 hours postdose at 0.3 and 1 mg/kg. A ceiling effect to the heart rate increase seemed to exist with heart rates peaking at approximately 150–160 in both the 10 and 30 mg/kg dose groups.

[4] = Acute dog study (toxicity and MTD, escalating oral doses); type: in vivo; conditions: male, Beagle, in vivo; dog, oral gavage
Beagles = assay: as above; type: in vivo
Crl:CD-I(ICR)BR mice = assay: Acetic acid-induced abdominal spasm test in the mouse; type: in vivo; conditions: for Number of abdominal spasms recorded in a 25-minute period: oral
Protocol: The objective of this example was to determine the analgesic activity of HY-2901 (Also referred to herein as Compound 49a) following oral administration. Analgesic activity was assessed abdominal spasm test in the rat and mouse. Analgesic activity is also assessed using the tail clip test in the mouse, tail flick test in the rat, Randall-Selitto test in the rat and comparisons are made with a vehicle control group. Reference compounds ASA (acetylsalicylic acid) and morphine are also included for comparison.
The tail clip and tail flick test provide useful information about the central analgesic activity of the test article. The Randall-Selitto test provides information on the compound's ability to modify a hyperalgesic state and the abdominal spasm test provides information on the peripheral analgesic activity of the test article. The test article is administered by oral gavage, this being the intended clinical route of administration. The dose levels employed are expected to encompass the efficacy dose and provide an adequate safety margin.
All formulations were prepared on each day of dosing. The test article (HY-2901) was formulated in 0.25% (w/v) MC at the highest concentration required. Lower doses were obtained by serial dilution of the highest concentration using 0.25% (w/v) MC. The reference compound, acetylsalicylic acid, was formulated in 0.25% (w/v) MC at the required concentrations. Brewer's yeast was formulated in water for injection at the required concentration. Acetic acid was diluted with water for injection to provide the required concentration for administration.
An adequate number of male Crl:CD-I(ICR)BR mice and Wistar rats were obtained from Charles River (UK) Ltd., Margate, Kent. The mice were approximately 4 weeks of age and weigh between 18 and 22 g on arrival. The rats were approximately 5 weeks of age and weigh between 150 and 170 g on arrival. The age and weight of the animals at the start of the study was documented in the raw data and final report,
Each animal received a single administration of vehicle, test article or reference compound by oral gavage, using a constant dose volume 10 mL/kg. Individual dose volumes were based on individual body weights obtained on the day of dosing.
Forty-five minutes following oral administration each animal received a 0.25 mL intraperitoneal injection of 0.5% acetic acid. Animals were immediately placed into individual observation chambers and the number of abdominal spasms elicited over the subsequent 25-minute period was recorded.

hERG = hERG (Homo sapiens, UniProt Q12809); assay: in vitro; conditions: pH 7.4
Chain of hERG (Q12809 whole entry): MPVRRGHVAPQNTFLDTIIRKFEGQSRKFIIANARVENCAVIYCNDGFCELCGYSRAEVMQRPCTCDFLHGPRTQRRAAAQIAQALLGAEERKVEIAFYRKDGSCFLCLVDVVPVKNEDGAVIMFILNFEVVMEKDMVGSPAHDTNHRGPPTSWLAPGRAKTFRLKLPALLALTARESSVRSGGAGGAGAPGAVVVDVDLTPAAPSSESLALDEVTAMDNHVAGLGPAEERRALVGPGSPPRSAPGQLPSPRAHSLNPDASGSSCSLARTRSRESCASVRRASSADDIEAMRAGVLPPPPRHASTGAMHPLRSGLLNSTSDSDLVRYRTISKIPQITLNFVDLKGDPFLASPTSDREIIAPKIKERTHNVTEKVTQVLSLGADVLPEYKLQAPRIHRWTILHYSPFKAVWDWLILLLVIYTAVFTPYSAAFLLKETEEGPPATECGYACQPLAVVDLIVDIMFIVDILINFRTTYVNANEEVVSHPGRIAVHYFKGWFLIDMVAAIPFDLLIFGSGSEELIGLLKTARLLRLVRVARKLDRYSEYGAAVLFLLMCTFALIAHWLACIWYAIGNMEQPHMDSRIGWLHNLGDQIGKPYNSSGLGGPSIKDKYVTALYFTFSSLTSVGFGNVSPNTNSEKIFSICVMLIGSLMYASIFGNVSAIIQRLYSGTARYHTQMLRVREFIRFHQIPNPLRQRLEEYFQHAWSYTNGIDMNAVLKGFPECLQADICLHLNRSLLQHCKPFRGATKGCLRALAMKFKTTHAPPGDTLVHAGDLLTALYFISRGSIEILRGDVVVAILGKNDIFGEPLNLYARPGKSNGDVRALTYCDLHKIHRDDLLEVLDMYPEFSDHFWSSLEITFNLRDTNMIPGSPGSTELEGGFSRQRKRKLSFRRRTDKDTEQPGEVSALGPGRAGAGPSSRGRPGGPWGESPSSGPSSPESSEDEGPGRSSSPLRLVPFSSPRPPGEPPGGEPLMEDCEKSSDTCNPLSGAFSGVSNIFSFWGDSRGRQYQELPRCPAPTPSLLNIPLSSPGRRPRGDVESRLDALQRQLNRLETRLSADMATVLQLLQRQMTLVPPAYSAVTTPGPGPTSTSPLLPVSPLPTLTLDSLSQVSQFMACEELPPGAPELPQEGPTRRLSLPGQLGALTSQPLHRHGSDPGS

Chain of Histamine, H2 (P25021 whole entry): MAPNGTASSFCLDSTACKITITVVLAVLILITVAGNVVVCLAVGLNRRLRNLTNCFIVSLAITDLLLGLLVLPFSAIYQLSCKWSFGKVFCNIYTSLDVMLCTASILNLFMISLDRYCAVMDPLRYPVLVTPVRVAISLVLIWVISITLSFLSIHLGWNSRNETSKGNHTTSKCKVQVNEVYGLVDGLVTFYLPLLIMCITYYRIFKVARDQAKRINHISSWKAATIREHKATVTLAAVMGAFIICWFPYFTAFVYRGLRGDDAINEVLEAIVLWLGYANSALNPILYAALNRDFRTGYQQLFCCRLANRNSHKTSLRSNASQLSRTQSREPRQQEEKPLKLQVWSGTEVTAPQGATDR

CC(CC(=O)O)N1CCC(=C2c3ccc(F)cc3COc3ccccc32)CC1 (stereo not drawn) [Compound 37]
inhibition at 1 µM (Histamine, H2): 0.8% | inhibition at 1 µM (Oxytocin): -5.82% | inhibition at 1 µM [1]: -2.98% | inhibition at 1 µM (Endothelin, ET-A (h)): 10.2% | inhibition at 1 µM (Endothelin, ET-B (h)): -6.51% | percentage inhibition of specific binding (Galanin, Non-Selective): −5.07% | inhibition at 1 µM [2]: -4.17% | inhibition at 1 µM (Neurokinin, NK3 (NKB)): -0.23% | inhibition at 1 µM (Vasopressin 1): 11.6% | percentage inhibition [3]: 6.51% | percentage inhibition (Esterase, Acetylcholine): 2.54%

CC(C)(CN1CCC(=C2c3ccc(F)cc3COc3ccccc32)CC1)C(=O)O [Compound 49a]
persistence of tachycardia postdose (telemetered Beagle dogs; 0.3 and 1 mg/kg): 6 to 8 h | peak heart rate (telemetered Beagle dogs; 10 and 30 mg/kg dose groups): 150–160 | QT or corrected QT interval (telemetered Beagle dogs; doses of 0.3, 1, 3, 10, and 30 mg/kg): no changes in QT or corrected QT interval at any dose | heart rate effect (telemetered Beagle dogs; doses of 0.3 to 30 mg/kg, intravenous or oral): dose-related sinus tachycardia | persistence of tachycardia (telemetered Beagle dogs; higher doses): 10 to 12 h | blood pressure (telemetered Beagle dogs; paralleled the tachycardia): slight increase in blood pressure | MTD at 5 days [4]: 75 mg/kg | clinical signs of toxicity (Beagles; 25 mg/kg oral gavage): No clinical signs of toxicity | blood pressure (Beagles; 40 mg/kg): No significant changes | heart rates (Beagles; 40 mg/kg): unaffected | clinical signs of toxicity (Beagles; 40 mg/kg on Day 5): body tremors, mild to moderate ataxia, excessive salivation and hypoactivity | clinical signs of toxicity (Beagles; 50 mg/kg oral gavage): Body tremors, mild to severe ataxia, and hypoactivity | clinical signs of toxicity (Beagles; 75 mg/kg oral gavage): Tremors (entire body, hind limbs, and/or head), mild to moderate ataxia, hypoactivity | body weight (Beagles; escalating doses 25-75 mg/kg, 40 mg/kg Day 5): minimal effect on body weight | Group mean (±sd) number of abdominal spasms recorded in a 25 minute period (Crl:CD-I(ICR)BR mice; oral 3 mg/kg): 6 ± 6.2 | Group mean (±sd) number of abdominal spasms recorded in a 25 minute period (Crl:CD-I(ICR)BR mice; oral 10 mg/kg): 1 ± 2.0 | Group mean (±sd) number of abdominal spasms recorded in a 25 minute period (Crl:CD-I(ICR)BR mice; oral 30 mg/kg): 0 ± 0.0 | Number of abdominal spasms recorded in a 25-minute period (Crl:CD-I(ICR)BR mice; 3 mg/kg, individual animal data (animals 7-12), listed as HY-2901, 3 mg/kg): 0 (2×) and 1 and 10 and 7 and 15 | Number of abdominal spasms recorded in a 25-minute period (Crl:CD-I(ICR)BR mice; 10 mg/kg, individual animal data (animals 13-18), listed as HY-2901, 10 mg/kg): 0 (4×) and 2 and 5 | Number of abdominal spasms recorded in a 25-minute period (Crl:CD-I(ICR)BR mice; 30 mg/kg, individual animal data (animals 19-24)): 0 | IC50 (hERG): 93 µM | inhibition at 0.01 µM (hERG): 10%
